Series [1] can be described thus: Zeta-potential measurement. It is filed as physicochemical. The following applies: zeta potential of peptide; Fig S15 source data. As to the method:
4 µL of 1 mg/mL peptide fibrils solution is added to a 20 µL, 50 µM ThT–solution in PBS. The mixture is incubated for 15 min at RT to allow binding of ThT dye with β–sheet rich structures. For reference PBS (4 µL) was added instead of peptide fibril solution. The samples were placed in black UV Star® 384 microliter well–plates (Greiner bio–one). Fluorescence spectra were recorded on an Infinite® M1000 PRO microplate reader (Tecan) at λem = 488 nm upon excitation at λex = 440 nm with 10 nm bandwidths and multiple reads per well (3×3). Measurements were repeated in triplicates and averaged with standard deviation. […] Zeta-Potential. For the determination of the surface charge of aggregated peptides zeta-potential measurements were conducted with a Zetasizer Nano ZS, Malvern Instruments. Unless stated otherwise the peptides were dissolved from DMSO (10 mg/mL) in PBS (pH 7.4) to concentration of 1 mg/mL and incubated for 1d at RT. Just before the measurement the 60 µL of the peptides were further diluted in 600 µL KCl (aq, 1 mM) in a 1 mL disposable folded capillary cells (DTS–1060, Zetasizer Nano series, Malvern). The zeta potential of the peptides was derived from the electrophoretic mobility based on the Smoluchowski formula. All measurements were averaged over two individually performed experiments and conducted in triplicates for each sample. Aggregate analysis. […] Furthermore, fluorescence microscopy was conducted by staining 1 µL preformed fibrils (1 mg/mL) with 9 µL ThT (50 µM). Brightfield microscopy was performed simultaneously to evaluate aggregation also for non ThT-active fibrils. The measurements were performed on a Leica DMi8 microscope with 10x air objective and equipped with a Leica MC170 HD camera with a filter setting λem = 527/30 nm upon excitation at λex = 480/40 nm) and processed with the Leica LASX software. To quantify size and number of microscopic aggregation of particles > 10 µm^2 at least 3 independently measured images were analyzed via the 3D object counter analysis tool of ImageJ, v 1.53f51. Sum–frequency generation. The SFG experiments were carried out with a femtosecond Ti: Sapphire amplified laser system (Spitfire Ace, Spectra–Physics, 800 nm, 40 fs, 1 kHz) with 5 W output power. We used 2 W to pump an optical parametric amplifier (TOPAS, light conversion) with a non–collinear difference frequency generation stage to generate broadband IR pulses. Another 1 W of the laser output passed through an etalon to generate narrowband visible pulses (10 cm^-1). The incident angles of the visible and IR beams were 36° and 41° with respect to the surface normal, respectively. The visible (13 µJ) and IR (5 µJ) pulses were overlapped spatially and temporally at the sample position. Subsequently, the generated SFG pulse was guided into a spectrograph (Acton SP 300i, Princeton Instruments), and detected with an EMCCD (Newton, Andor Technology). To avoid IR absorption of water vapor, we purged N2 for the measurement. All spectra were collected in the ssp (denoting s-, s- and p-polarized SFG, visible and IR, respectively) polarization combination. The spectra were normalized to the non–resonant signal taken from z–cut quartz after subtracting a background spectrum. […]

Series [2] has as its system HIV-1 infection of TZM-bl cells. Kind of series: HIV-1 infectivity enhancement assay, β-galactosidase luminescence. Type of series: cell-based. The following applies: for Log10 Inf. rel. to EF-C: log10 of HIV-1 infection of TZM-bl cells relative to EF-C, Fig S15 source data, asymmetric std dev errors.
The format of series [3] is physicochemical. Particulars: ThT-active if fluorescence at least twice the control. As to the method:
4 µL of 1 mg/mL peptide fibrils solution is added to a 20 µL, 50 µM ThT–solution in PBS. The mixture is incubated for 15 min at RT to allow binding of ThT dye with β–sheet rich structures. For reference PBS (4 µL) was added instead of peptide fibril solution. The samples were placed in black UV Star® 384 microliter well–plates (Greiner bio–one). Fluorescence spectra were recorded on an Infinite® M1000 PRO microplate reader (Tecan) at λem = 488 nm upon excitation at λex = 440 nm with 10 nm bandwidths and multiple reads per well (3×3). Measurements were repeated in triplicates and averaged with standard deviation. […] Zeta-Potential. For the determination of the surface charge of aggregated peptides zeta-potential measurements were conducted with a Zetasizer Nano ZS, Malvern Instruments. Unless stated otherwise the peptides were dissolved from DMSO (10 mg/mL) in PBS (pH 7.4) to concentration of 1 mg/mL and incubated for 1d at RT. Just before the measurement the 60 µL of the peptides were further diluted in 600 µL KCl (aq, 1 mM) in a 1 mL disposable folded capillary cells (DTS–1060, Zetasizer Nano series, Malvern). The zeta potential of the peptides was derived from the electrophoretic mobility based on the Smoluchowski formula. All measurements were averaged over two individually performed experiments and conducted in triplicates for each sample. Aggregate analysis. […] Furthermore, fluorescence microscopy was conducted by staining 1 µL preformed fibrils (1 mg/mL) with 9 µL ThT (50 µM). Brightfield microscopy was performed simultaneously to evaluate aggregation also for non ThT-active fibrils. The measurements were performed on a Leica DMi8 microscope with 10x air objective and equipped with a Leica MC170 HD camera with a filter setting λem = 527/30 nm upon excitation at λex = 480/40 nm) and processed with the Leica LASX software. To quantify size and number of microscopic aggregation of particles > 10 µm^2 at least 3 independently measured images were analyzed via the 3D object counter analysis tool of ImageJ, v 1.53f51. Sum–frequency generation. The SFG experiments were carried out with a femtosecond Ti: Sapphire amplified laser system (Spitfire Ace, Spectra–Physics, 800 nm, 40 fs, 1 kHz) with 5 W output power. We used 2 W to pump an optical parametric amplifier (TOPAS, light conversion) with a non–collinear difference frequency generation stage to generate broadband IR pulses. Another 1 W of the laser output passed through an etalon to generate narrowband visible pulses (10 cm^-1). The incident angles of the visible and IR beams were 36° and 41° with respect to the surface normal, respectively. The visible (13 µJ) and IR (5 µJ) pulses were overlapped spatially and temporally at the sample position. Subsequently, the generated SFG pulse was guided into a spectrograph (Acton SP 300i, Princeton Instruments), and detected with an EMCCD (Newton, Andor Technology). To avoid IR absorption of water vapor, we purged N2 for the measurement. All spectra were collected in the ssp (denoting s-, s- and p-polarized SFG, visible and IR, respectively) polarization combination. The spectra were normalized to the non–resonant signal taken from z–cut quartz after subtracting a background spectrum.
(§1) 1. Remarks on experimental parameters and bioinformatic descriptors

Series [4] is classed as physicochemical. The arrangement: key to Fibril / Fibril Formation / TEM 2cat / Fibril: 1 = fibrils present; 0 non-fibrillar structures. Particulars: TEM, 1 mg/mL, uranyl acetate stain, qualitative. The protocol: For ATR FT–IR spectroscopy measurements, 200 µL of the respective 1 mg/mL PNF solution was lyophilized and the resulting powder used for measurement. All spectra were recorded on a Bruker Tensor 27 spectrometer with a diamond crystal as ATR element (PIKE MiracleTM, spectral resolution 2 cm^-1). Every sample was measured with 64 scans. Data were analyzed with OriginLab software and calculation of β–sheet content was conducted according to a previous report. TEM. For TEM measurements 5 µL of PNF fibrils (1 mg/mL) were placed on copper grids coated with carbon and formvar layer (300 mesh, Plano GmbH). After 10 min incubation time, the grids were staining with 4% uranyl acetate solution for 2.5 min and washed with water. Measurements were performed on a Jeol 1400 electron microscope with 120 kV acceleration voltage. CR Assay. For the determination of the amount of peptide monomer converting into nanostructures the amine reactive dye fluorescamine was used analogous to a previous reported protocol. Briefly, 100 µL of the preformed PNF solution was centrifuged in a Vivaspin 500 tube (3 kDa MWCO) to separate fibers from free peptide monomer (16200 x g, 4 °C, 45 min). The filtrate and 100 μL of the non-filtered PNF sample were lyophilized and dissolved in 30 μL DMSO. 10 μL of the filtrate and non-filtered DMSO samples were submitted in a black UV Star® 384 microliter well–plates (Greiner bio–one) and 3 μL of the fluorescamine solution (10 mg/mL, DMSO) was added to measure the fluorescence enhancement. After 20 min of incubation at RT, fluorescence was recorded on an Infinite® M1000 PRO microplate reader (Tecan) at λem = 470 nm upon excitation at λex = 365 nm with 10 nm bandwidths and multiple reads per well (3×3). Measurements were repeated in triplicates and averaged with standard deviation. All values were calculated as n-fold fluorescence enhancement (DMSO only as a reference was set to 1). The conversion rate CR was defined according to the equation Eq. (3).3 CR=100−100×fluorescenceintensityfiltrate/fluorescenceintensityoriginal[%]
as §1
1.1 Experimental parameters
Transmission electron microscopy (TEM) measurements. TEM measurements were used to control if peptides assemble. The assemblies were categorized in non -fibrillar structures (no assembly, […]
grid but only amorphous aggregates. In contrast, peptides defined as fibrillar may also include amorphous structures. Amongst nonfibrillar assemblies also amorphous aggregates are summarized.
Amorphous aggregates are defined as structures with high β-sheet content which lack long-range order, that is crystallinity or fibril formation. It is generally assumed that these structures might be

The mark [5] stands for this setting: infectivity class (low / medium / high) of each library peptide, main list in c1-c6, same classes repeated in sub-lists of sequences containing the hydrophobicity/charge patterns P+,H0,P+,H0,P0,H0,P0, P+,H0,P0,H0,P0,H0,P0, P+,H0,P0,H0.
Where [6] appears, read: input.xlsx of the Pattern-Analysis script, infectivity relative to EF-C (peptide 59 = 1.00).

The values below come from paper PMC10447463, “Data-mining unveils structure–property–activity correlation of viral infectivity enhancing self-assembling peptides” (Nature Communications, 2023).

In the case of CETMYDKILKNLSRSR [CR16], the “Zeta-pot. / mV” value in series [1] worked out at 0.41 mV. The infectivity entry in series [2] (setting [5]) was “low”. Further, the “Log10 Inf. rel. to EF-C” value in series [2] is reported as -1.716.
For CKFC [CN33], in that order: -19.89 mV, “low” and -1.959.
On to CKFQC [CN31], for which the “Zeta-pot. / mV” value in series [1] is -17.38 mV. In addition, the infectivity result in series [2] (setting [5]) is “low”. For the same substance, in series [2], the “Log10 Inf. rel. to EF-C” value was -1.643.
Take KKWWNF: the “ThT Cat. / ThT-Fluorescence (categorical)” value (“ThT Cat. / ThT-Fluorescence” for short) in series [3] is 0 (ThT-inactive (N-Fold <2)). Also, the “Fibril / Fibril Formation” value in series [4] came to 0.
Take KVWWNF: in series [3], the “ThT Cat. / ThT-Fluorescence” value was 0 (ThT-inactive (N-Fold <2)). Also, in series [4], the “Fibril / Fibril Formation” value is 0.
Consider NMWQKIKIQI [compound 72], for which the infectivity in series [2] (setting [6]) came out at 0.21.
NMWQKIKQII [compound 71]: the infectivity in series [2] (setting [6]) was 0.0253.
As to NMWQKVGTPL [compound 70], the infectivity in series [2] (setting [6]) was 0.0247.
On the same count and under the same terms, the figure for PPFHPPPFHP [compound 38] is 0.0177.
Turning to QCKAKAQA [compound 21], in series [2] (setting [6]), the infectivity is 0.0253.
Same read-out and setting: with QCKAKAQANM [compound 20] the figure was 0.0146.
For QCKAKAQANMWQ [compound 19], in series [2] (setting [6]), the infectivity is recorded as 0.07.
In the case of QCKFKFQF [compound 27], the infectivity in series [2] (setting [6]) came out at 0.77.
As for QCKFKFQFNM [compound 26], the infectivity in series [2] (setting [6]) came out at 0.51.
Still for that read-out and setting: the figure for QCKFKFQFNMWQ [compound 25] is 0.62; for QCKFKQFF [compound 14] it is 0.0124; for QCKFKQFFNM [compound 13] it is 0.43.
For QCKIKIQI [compound 22], the infectivity in series [2] (setting [6]) was found to be 0.11.
Same read-out and setting: the figure for QCKIKIQINM [compound 18] is 0.40; for QCKIKIQINMWQ [compound 60] it is 1.04; for QCKIKQII [compound 24] it is 0.00647.
On the same count and under the same terms, the figure for QCKIKQIINM [compound 23] is 0.35; for QCKIKQIINMWQ [compound 59] it is 1.00; for RGDCKFKFQF [compound 145] it is 0.15.
The same measure, in the same setting: with RGDCKIKIQINM [compound 142] the figure was 0.24; with RGDKIKIQI [compound 97], 0.0157.
For RGDKIKIQIC [compound 103], in series [2] (setting [6]), the infectivity is reported as 0.83.
RGDKIKIQINM [compound 104]: in series [2] (setting [6]), the infectivity is on record as 0.41.
Consider RGDKIKIQINMC [compound 111], for which, in series [2] (setting [6]), the infectivity worked out at 1.07.
Still for that read-out and setting: with RGDKIKIQINMWQ [compound 105] the figure was 0.76; with RGDKIRGDKI [compound 51], 0.00748.
As for RGDSGGGGGGKIKIQIC [compound 127], in series [2] (setting [6]), the infectivity was determined as 0.87.
Consider RGDSKIKIQIC [compound 126], for which the infectivity in series [2] (setting [6]) was 0.60.
Same read-out and setting: the figure for RGECKFKFQF [compound 32] is 0.33.
The same measure, in the same setting: the figure for RGEKIKIQINM [compound 33] is 0.24.
On to RLRLTLC [compound 30], for which, in series [2] (setting [6]), the infectivity came out at 0.05.
On to RPRGLLLGNLR [compound 36], for which the infectivity in series [2] (setting [6]) came out at 0.05.
RVWWNF: in series [3], the “ThT Cat. / ThT-Fluorescence” value was 0 (ThT-inactive (N-Fold <2)). For the same substance, the “Fibril / Fibril Formation” value in series [4] came to 0.
In the case of SISISRRI [compound 44], the infectivity in series [2] (setting [6]) turned out to be 0.0283.
For TKTLTKTL [compound 41], the infectivity in series [2] (setting [6]) amounted to 0.0213.
